Like-named read-outs stand apart in the source and are kept apart here.

From patent publication US7868026B2, “Therapeutic compounds” (Pfizer Inc., priority 2005, dated 2011) come the findings set out here.

Format in all cases: biochemical
The target in assay [1] is T1, CYP3A4 (Homo sapiens, UniProt P08684). Nature of the assay: Determination of compound Kiapp against recombinant CYP3A4 enzyme (BFC fluorescent substrate). The method, boiled down:
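Kiapp derived from initial velocities over the first 5 min of BFC (5 uM) oxidation, using Morrison's tight-binding equation for non-partial and Szedlacsek's for partial inhibitors. Inhibitor first pre-incubated ≥30 min with CYP3A4 (5.5 or 8 nM, ±b5) in pH 7.0 phosphate/TCEP/2% DMF at room temperature; 200 uM NADPH initiated.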

The target of assay [2] is T1, CYP3A4. Nature of the assay: Determination of IC50 against CYP3A4 by measurement of inhibition of testosterone metabolism (human liver microsomes, 6-β-OH-testosterone by LC-MS/MS). Also on record: 0.1 mg/mL human liver microsomes. The settings on record: read-out: IC50 (Testo.). The procedure:
2. Determination of IC50 Against CYP3A4 by Measurement of Inhibition of Testosterone Metabolism
This assay was performed using a standard 96 well plate design. […] The incubation substrate mix contains 25 μM testosterone, 0.1 mg/mL human liver microsomes, 1 mM NADPH, and potassium phosphate buffer (100 mM, pH 7.4). Quantitation of metabolite peak area ratio against an internal standard is determined by LC-MS/MS analysis. The production of 6-β-OH-testosterone from testosterone metabolism is determined after incubation for eight minutes by comparison to a standard curve generated for the metabolite
Samples were analyzed in the MRM mode using a Sciex API 3000 mass spectrometer (Applied Biosystems, Foster City, Calif.) with a Paradigm MS4 binary pump (Michrom BioResources Inc., Auburn, Calif.) and a LEAP CTC PAL autosampler (LEAP Technologies, Carrboro, N.C.). A Phenomenex Synergi, 4μ, Polar-RP, 10×2.0 mm column (Phenomenex, Torrance, Calif.) was used for separation with a mobile phase composition of: 0.1% formic acid in water (A) and: 0.1% formic acid in methanol (B). The following gradient was used: […]
The sample injection volume was 10 μL and flow was split post-column with 0.4 mL/min going to the mass spectrometer. Analysis was performed using the following API 3000 mass spectrometer settings: […]
For orientation: Liver microsomes are vesicles of endoplasmic reticulum, rich in cytochrome P450 enzymes.

The target of assay [3] is T1, CYP3A4. Nature of the assay: Determination of IC50 against CYP3A4 by measurement of inhibition of midazolam metabolism (human liver microsomes, 1-hydroxymidazolam by LC-MS/MS). The settings on record: 2 μM midazolam, 0.1 mg/mL human liver microsomes. Also on record: 0.1 mg/mL human liver microsomes. The method in brief: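 Human liver microsomes (0.1 mg/mL) incubated 8 min with 2 μM midazolam and 1 mM NADPH in 100 mM potassium phosphate, pH 7.4. 1-Hydroxymidazolam quantified by LC-MS/MS (MRM) as peak area ratio to internal standard against a metabolite standard curve.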

Where [4] appears, read: Baculo. enzyme preparation, read-out: Kiapp (BFC, Baculo.).
Where [5] appears, read: Super. enzyme preparation, read-out: Kiapp (BFC, Super.).

T1 sequence (P08684 whole entry): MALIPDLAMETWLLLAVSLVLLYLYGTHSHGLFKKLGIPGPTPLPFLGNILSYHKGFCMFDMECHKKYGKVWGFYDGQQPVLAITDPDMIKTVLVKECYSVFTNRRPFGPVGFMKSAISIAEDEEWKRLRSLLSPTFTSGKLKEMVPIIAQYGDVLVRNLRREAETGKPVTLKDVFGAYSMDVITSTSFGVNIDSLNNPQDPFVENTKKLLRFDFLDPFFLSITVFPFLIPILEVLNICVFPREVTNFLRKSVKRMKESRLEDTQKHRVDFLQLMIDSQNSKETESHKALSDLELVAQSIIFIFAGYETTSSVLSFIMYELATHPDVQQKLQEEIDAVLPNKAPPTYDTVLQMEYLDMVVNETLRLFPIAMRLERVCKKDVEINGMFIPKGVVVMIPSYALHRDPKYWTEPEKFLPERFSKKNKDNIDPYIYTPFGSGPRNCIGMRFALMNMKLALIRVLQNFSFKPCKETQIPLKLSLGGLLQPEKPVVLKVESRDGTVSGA

Turning to `Cc1cncc(NS(=O)(=O)c2ccccc2C(=O)NCCC(C)C)c1` [Example 362, N-(3-methylbutyl)-2-{[(5-methylpyridin-3-yl)amino]sulfonyl}benzamide], the results for the Ki in assay [1] (setting [4]) and in assay [1] (setting [5]) were 94.4 nM and 22.9 nM, respectively. Moreover, the IC50 in assay [2] stood at 44 nM; in assay [3] it was 26 nM.
On to `Cc1cncc(NS(=O)(=O)c2ccccc2C(=O)NCCOc2ccccc2)c1` [Example 229, 2-{[(5-methylpyridin-3-yl)amino]sulfonyl}-N-(2-phenoxyethyl)benzamide], for which the figures for the Ki in assay [1] (setting [4]) and in assay [1] (setting [5]) were 203 nM and 24.3 nM, respectively. The 50% inhibitory concentration (IC50) is 37 nM in assay [2] and 16 nM in assay [3].
As for `COc1cncc(NS(=O)(=O)c2ccccc2C(=O)N(C)Cc2ccccc2F)c1` [Example 198, N-(2-fluorobenzyl)-2-{[(5-methoxypyridin-3-yl)amino]sulfonyl}-N-methylbenzamide], the Ki in assay [1] (setting [4]) came to 41.7 nM; in assay [1] (setting [5]) it was 16.6 nM. The figures for the IC50 in assay [2] and in assay [3] were 10 nM and under 3 nM, respectively.
With `CCOc1cncc(NS(=O)(=O)c2ccccc2C(=O)NCCC(C)C)c1` [Example 296, 2-{[(5-ethoxypyridin-3-yl)amino]sulfonyl}-N-(3-methylbutyl)benzamide], the Ki was determined as 35.8 nM in assay [1] (setting [4]) and 9.32 nM in assay [1] (setting [5]). In addition, the IC50 was found to be 90 nM in assay [2] and 12 nM in assay [3].
Take `CN(Cc1ccccc1)C(=O)c1ccccc1S(=O)(=O)Nc1cccnc1` [Example 55, N-benzyl-N-methyl-2-[(pyridin-3-ylamino)sulfonyl]benzamide]: the Ki in assay [1] (setting [4]) worked out at 385 nM; in assay [1] (setting [5]) it was 14.2 nM. Also, the IC50 in assay [2] amounted to 54.5 nM; in assay [3] it was 40.6 nM.
As to `COc1cncc(NS(=O)(=O)c2ccccc2C(=O)NCc2cccc(Cl)c2F)c1` [Example 175, N-(3-chloro-2-fluorobenzyl)-2-{[(5-methoxypyridin-3-yl)amino]sulfonyl}benzamide], the Ki is 24 nM in assay [1] (setting [4]) and 1.3 nM in assay [1] (setting [5]). In addition, the IC50 in assay [2] and in assay [3] was 9 nM throughout.
For `COc1cncc(NS(=O)(=O)c2ccccc2C(=O)NC2CCCCC2)c1` [Example 187, N-cyclohexyl-2-{[(5-methoxypyridin-3-yl)amino]sulfonyl}benzamide], the Ki in assay [1] (setting [4]) amounted to 257 nM; in assay [1] (setting [5]), 35.9 nM. The results for the half-inhibitory concentration (IC50) in assay [2] and in assay [3] were 28 nM and 22 nM, respectively.
For the compound `COc1cncc(NS(=O)(=O)c2ccccc2C(=O)NCCN2CCCC2)c1` [Example 386, 2-{[(5-methoxypyridin-3-yl)amino]sulfonyl}-N-(2-pyrrolidin-1-ylethyl)benzamide], the Ki in assay [1] (setting [4]) was over 1000 nM; in assay [1] (setting [5]) it was 174 nM. For the same compound, the 50% inhibitory concentration (IC50) in assay [2] and in assay [3] was over 750 nM each time.
Consider `Cc1ccc(CNC(=O)c2ccccc2S(=O)(=O)Nc2cnccc2C)cc1F` [Example 166, N-(3-fluoro-4-methylbenzyl)-2-{[(4-methylpyridin-3-yl)amino]sulfonyl}benzamide], for which the Ki was determined as 196 nM in assay [1] (setting [4]) and 35.1 nM in assay [1] (setting [5]). Moreover, the concentration for half-maximal inhibition (IC50) in assay [2] is 26 nM; in assay [3] it was 23 nM.
Take `COC[C@@H]1[C@@H]2C[C@@H]3[C@H]1CN(C(=O)c1ccccc1S(=O)(=O)Nc1cncc(OC)c1)[C@@H]3C2` [Example 194, 2-{[(3R,3aR,5R,6aR,7R)-7-(methoxymethyl)hexahydro-3,5-methanocyclopenta[b]pyrrol-1(2H)-yl]carbonyl}-N-(5-methoxypyridin-3-yl)benzenesulfonamide]: the Ki in assay [1] (setting [4]) was 376 nM; in assay [1] (setting [5]), 68.5 nM. Also, the concentration for half-maximal inhibition (IC50) in assay [2] is 99 nM; in assay [3], 73 nM.
For the compound `COc1cncc(NS(=O)(=O)c2ccccc2C(=O)N(C)CCOc2ccccc2)c1` [Example 173, 2-{[(5-methoxypyridin-3-yl)amino]sulfonyl}-N-methyl-N-(2-phenoxyethyl)benzamide], the Ki in assay [1] (setting [4]) came out at 104 nM; in assay [1] (setting [5]) it was 9.9 nM. The half-inhibitory concentration (IC50) in assay [2] worked out at 18 nM; in assay [3], 16 nM.
Regarding `CCCCCNC(=O)c1ccccc1S(=O)(=O)N(C)c1cncc(OC)c1` [Example 364, 2-{[(5-methoxypyridin-3-yl)(methyl)amino]sulfonyl}-N-pentylbenzamide], the Ki in assay [1] (setting [4]) amounted to 86.8 nM; in assay [1] (setting [5]) it was 23.4 nM. Moreover, the results for the half-inhibitory concentration (IC50) in assay [2] and in assay [3] were 49 nM and 33 nM, respectively.
In the case of `CCOc1cncc(NS(=O)(=O)c2ccccc2C(=O)NCC2CC2)c1` [Example 293, N-(cyclopropylmethyl)-2-{[(5-ethoxypyridin-3-yl)amino]sulfonyl}benzamide], the values for the Ki in assay [1] (setting [4]) and in assay [1] (setting [5]) were 268 nM and 58.1 nM, respectively. Further, the IC50 in assay [2] stood at 145 nM; in assay [3], 81 nM.
For `Cc1cncc(NS(=O)(=O)c2ccccc2C(=O)N2CCCC2)c1` [Example 321, N-(5-methylpyridin-3-yl)-2-(pyrrolidin-1-ylcarbonyl)benzenesulfonamide] the same measures were 195 nM, 460 nM, 129 nM and 94 nM.
For `Cc1cncc(NS(=O)(=O)c2ccccc2C(=O)N2CC(C)CC(C)C2)c1` (stereo not shown) [Example 333, 2-[(3,5-dimethylpiperidin-1-yl)carbonyl]-N-(5-methylpyridin-3-yl)benzenesulfonamide] the same measures were 69.2 nM, 22.9 nM, 13 nM and 24 nM.
As to `COc1ccncc1NS(=O)(=O)c1ccccc1C(=O)N(C)C(C)C` [Example 279, N-isopropyl-2-{[(4-methoxypyridin-3-yl)amino]sulfonyl}-N-methylbenzamide], the Ki was over 1000 nM in assay [1] (setting [4]) and 95.2 nM in assay [1] (setting [5]). In addition, the IC50 in assay [2] was determined as 337 nM; in assay [3], 123 nM.
Regarding `CCC(C)NC(=O)c1ccccc1S(=O)(=O)Nc1cncc(OC)c1` (stereo not shown) [Example 205, N-(sec-butyl)-2-{[(5-methoxypyridin-3-yl)amino]sulfonyl}benzamide], the Ki in assay [1] (setting [4]) was 206 nM; in assay [1] (setting [5]) it was 41.9 nM. In addition, the concentration for half-maximal inhibition (IC50) is 27 nM in assay [2] and under 15.5 nM in assay [3].
Turning to `CCCCNC(=O)c1ccccc1S(=O)(=O)Nc1cnccc1C` [Example 260, N-butyl-2-{[(4-methylpyridin-3-yl)amino]sulfonyl}benzamide], the values for the Ki in assay [1] (setting [4]) and in assay [1] (setting [5]) were 485 nM and 71.5 nM, respectively. Besides, the IC50 stood at 65 nM in assay [2] and 47 nM in assay [3].
As to `CCN(CCn1cccn1)C(=O)c1ccccc1S(=O)(=O)Nc1cccnc1` [Example 40, N-ethyl-N-[2-(1H-pyrazol-1-yl)ethyl]-2-[(pyridin-3-ylamino)sulfonyl]benzamide], the Ki in assay [1] (setting [4]) was over 1000 nM. Further, the values for the half-inhibitory concentration (IC50) in assay [2] and in assay [3] were 340 nM and 179 nM, respectively.
With `CCCN(CC1CC1)C(=O)c1ccccc1S(=O)(=O)Nc1cccnc1` [Example 54, N-(cyclopropylmethyl)-N-propyl-2-[(pyridin-3-ylamino)sulfonyl]benzamide], the Ki in assay [1] (setting [4]) was determined as 239 nM. Besides, the values for the IC50 in assay [2] and in assay [3] were 26 nM and 15 nM, respectively.
For `COc1ccc(CNC(=O)c2ccccc2S(=O)(=O)Nc2cccnc2)cc1` [Example 57, N-(4-methoxybenzyl)-2-[(pyridin-3-ylamino)sulfonyl]benzamide], the Ki came to 353 nM in assay [1] (setting [4]) and 35 nM in assay [1] (setting [5]). The 50% inhibitory concentration (IC50) in assay [2] stood at 93.3 nM; in assay [3], 69.6 nM.
As for `CC(C)(CN1CCCCC1)NC(=O)c1ccccc1S(=O)(=O)Nc1cccnc1` [Example 2, N-(1,1-dimethyl-2 piperidin-1-ylethyl)-2-[(pyridin-3-ylamino)sulfonyl]benzamide], the Ki in assay [1] (setting [4]) is 901 nM; in assay [1] (setting [5]), 570 nM. For the same compound, the half-maximal inhibitory concentration (IC50) in assay [2] and in assay [3] was over 750 nM each time.
On to `Cc1ccncc1NS(=O)(=O)c1ccccc1C(=O)NCCC(C)C` [Example 179, N-(3-methylbutyl)-2-{[(4-methylpyridin-3-yl)amino]sulfonyl}benzamide], for which the Ki in assay [1] (setting [4]) amounted to 314 nM; in assay [1] (setting [5]), 63.7 nM. Moreover, the IC50 in assay [2] worked out at 58 nM; in assay [3] it was 45 nM.
Turning to `Cc1ccncc1NS(=O)(=O)c1ccccc1C(=O)N(C)Cc1ccc(C(F)(F)F)cc1` [Example 165, N-methyl-2-{[(4-methylpyridin-3-yl)amino]sulfonyl}-N-[4-(trifluoromethyl)benzyl]benzamide], the Ki in assay [1] (setting [4]) was 163 nM; in assay [1] (setting [5]), 29.6 nM. Further, the 50% inhibitory concentration (IC50) was 54 nM in assay [2] and 43 nM in assay [3].

As usually defined, the IC50 is the concentration needed to halve the response being measured.
